# Source: ChEMBL document CHEMBL1131756, “Synthesis and biological activity of anthelmintic thiadiazoles using an AF-2 receptor binding assay” (Bioorg Med Chem Lett, 1999)
# Target: AF2 neuropeptide receptor
# Test: In vitro antihelminthic activity using AF2 Neuropeptide receptor binding assay in Caenorhabditis elegans
row,SMILES,IC50 [µM]
1,Cc1ccccc1-c1nn(-c2c(Cl)cc(Cl)cc2Cl)c(=N)s1,4
2,N=c1sc(-c2ccccc2SC(F)(F)F)nn1-c1c(Cl)cc(C(F)(F)F)cc1Cl,56
3,N=c1sc(-c2cccc(F)c2)nn1-c1c(Cl)cc(Cl)cc1Cl,8
4,COC(=O)c1ccccc1-c1nn(-c2c(Cl)cc(C(F)(F)F)cc2Cl)c(=N)s1,> 100
5,N=c1sc(-c2cc(F)ccc2F)nn1-c1c(Cl)cc(C(F)(F)F)cc1Cl,0.37
6,N=c1sc(-c2ccccc2F)nn1-c1c(Cl)cc(C(F)(F)F)cc1Cl,0.15
7,N=c1sc(-c2cc(CN)ccn2)nn1-c1c(Cl)cc(C(F)(F)F)cc1Cl,47
8,N=c1sc(-c2c(F)cccc2C(F)(F)F)nn1-c1c(Cl)cc(C(F)(F)F)cc1Cl,> 100
9,N=c1sc(-c2cccc(Br)n2)nn1-c1c(Cl)cc(C(F)(F)F)cc1Cl,20
10,N=c1sc(-c2ccncn2)nn1-c1c(Cl)cc(C(F)(F)F)cc1Cl,2.6
11,Cc1cccnc1-c1nn(-c2c(Cl)cc(C(F)(F)F)cc2Cl)c(=N)s1,11
12,N=c1sc(-c2ccccn2)nn1-c1c(Cl)cc(Cl)cc1C(F)(F)F,0.14
13,CCOC(=O)Oc1ccc(-c2nn(-c3c(Cl)cc(Cl)cc3Cl)c(=N)s2)cc1,4
14,N=c1sc(-c2ccc([N+](=O)[O-])cc2)nn1-c1c(Cl)cc(Cl)cc1Cl,5
15,N=c1sc(-c2cc([N+](=O)[O-])ccc2F)nn1-c1c(Cl)cc(C(F)(F)F)cc1Cl,0.63
16,N=c1sc(-c2ccc(Br)cc2)nn1-c1c(Cl)cc(Cl)cc1Cl,4
17,N=c1sc(-c2cccc(C(F)(F)F)c2F)nn1-c1c(Cl)cc(Cl)cc1Cl,4
18,N=c1sc(-c2ccc(C(F)(F)F)cc2)nn1-c1c(Cl)cc(Cl)cc1Cl,20
19,N=c1sc(-c2ccc(C(F)(F)F)cc2F)nn1-c1c(Cl)cc(Cl)cc1Cl,1
20,N=c1sc(-c2cc(Cl)ccn2)nn1-c1c(Cl)cc(C(F)(F)F)cc1Cl,0.16
21,N#Cc1ccc(-c2nn(-c3c(Cl)cc(Cl)cc3Cl)c(=N)s2)cc1,6
22,N=c1sc(-c2ccccc2)nn1-c1c(Cl)cc(Cl)cc1Cl,3
23,N=c1sc(-c2ccccn2)nn1-c1c(Cl)cc(Cl)cc1Cl,0.4
24,COC(=O)c1ccc(-c2nn(-c3c(Cl)cc(Cl)cc3Cl)c(=N)s2)cc1,11

row,SMILES,IC50 [µM]
1,N=c1sc(-c2ccc(Cl)cc2)nn1-c1c(Cl)cc(Cl)cc1Cl,5
2,COC(=O)c1ccnc(-c2nn(-c3c(Cl)cc(C(F)(F)F)cc3Cl)c(=N)s2)c1,0.13
3,N=c1sc(-c2ccccc2F)nn1-c1c(Cl)cc(Cl)cc1Cl,0.5
4,N=c1sc(-c2ccc(O)cc2)nn1-c1c(Cl)cc(Cl)cc1Cl,4
5,COc1ccc(OC)c(-c2nn(-c3c(Cl)cc(C(F)(F)F)cc3Cl)c(=N)s2)c1,4
6,N#Cc1ccnc(-c2nn(-c3c(Cl)cc(C(F)(F)F)cc3Cl)c(=N)s2)c1,0.01
7,CC(C)(C)c1cc(-c2nn(-c3c(Cl)cc(C(F)(F)F)cc3Cl)c(=N)s2)ccn1,0.037
8,N=c1sc(-c2ccc(OC(F)(F)F)cc2)nn1-c1c(Cl)cc(Cl)cc1Cl,5
9,N=c1sc(-c2cncc(C(F)(F)F)c2)nn1-c1c(Cl)cc(C(F)(F)F)cc1Cl,0.021
10,N=c1sc(-c2ccccc2OC(F)(F)F)nn1-c1c(Cl)cc(C(F)(F)F)cc1Cl,85
11,N=c1sc(-c2cc(C(F)(F)F)ccc2F)nn1-c1c(Cl)cc(Cl)cc1Cl,0.1
12,Cc1ccc(-c2nn(-c3c(Cl)cc(Cl)cc3Cl)c(=N)s2)cc1,7
13,N=c1sc(-c2cnccn2)nn1-c1c(Cl)cc(C(F)(F)F)cc1Cl,0.2
14,N=c1sc(-c2cc(Br)ccc2F)nn1-c1c(Cl)cc(C(F)(F)F)cc1Cl,0.63
15,N=c1sc(-c2ccc(F)cc2)nn1-c1c(Cl)cc(Cl)cc1Cl,0.9
16,N=c1sc(-c2cc(C(F)(F)F)ccc2F)nn1-c1c(Cl)cc(C(F)(F)F)cc1Cl,0.063
17,N=c1sc(-c2cccnc2)nn1-c1c(Cl)cc(Cl)cc1Cl,40
18,N=c1sc(-c2cccnn2)nn1-c1c(Cl)cc(C(F)(F)F)cc1Cl,35
19,N=c1sc(-c2ccnc([N+](=O)[O-])c2)nn1-c1c(Cl)cc(C(F)(F)F)cc1Cl,0.013
20,N=c1sc(-c2ncc(C(F)(F)F)cc2Cl)nn1-c1c(Cl)cc(C(F)(F)F)cc1Cl,2.4
21,N=c1sc(-c2ccccn2)nn1-c1c(Cl)cc(C(F)(F)F)cc1Cl,0.09
22,COc1ccc(-c2nn(-c3c(Cl)cc(Cl)cc3Cl)c(=N)s2)cc1,80
23,CC(=O)Nc1ccc(-c2nn(-c3c(Cl)cc(Cl)cc3Cl)c(=N)s2)cc1,70
